Data as given in publication PMC4145318, “Marinopyrrole Derivatives with Sulfide Spacers as Selective Disruptors of Mcl-1 Binding to Pro-Apoptotic Protein Bim” (Marine Drugs, 2014).
Where two headings read alike, the source gives them in different places.

Experiments:
[1] = test system: MDA-MB-468 cells; assay: Apoptosis induction (cleaved caspase 3, Western blotting); settings: 40 μM for 16 h
Description: (§2) The cells were then processed for Western blotting exactly as described by us previously [16, 38]. […] We next evaluated the effects of the compounds on programed cell death (apoptosis) by determining their ability to induce cleaved caspase 3 in MDA-MB-468 cells.
(§3) Treatment of the human breast cancer (MDA-MB-468) cells and Western blotting were performed using the methods described by us previously [16, 38].

[2] = test system: Mcl-1 levels in MDA-MB-468 cells; assay: Western blotting of Mcl-1 levels in intact breast cancer cells; settings: 40 μM for 16 h
Description: as §2, §3

[3] = test system: MDA-MB-468 cells; assay: MTT assay; settings: read-out: estimated IC50, inhibition of MDA-MB-468 cell growth
Description: In addition, the ability of the compounds to inhibit tumor growth of MDA-MB-468 cells was determined by MTT assays. To this end, MDA-MB-468 cells were treated for 48 h with the compounds at 0, 0.5, 5 and 50 μM, and the cells were processed for MTT assays as described by us [39].
MDA-MB-468 cells were treated and processed for MTT, DAPI nuclear staining and phase imaging of cells as described previously by us [39].

[4] = target: T1, Bcl-xL/Bim (Homo sapiens, UniProt Q07817); assay: ELISA, disruption of Bcl-xL binding to Bim; settings: for IC50: ELISA; for fold more potent than 1 against Bcl-xL/Bim: ELISA IC50 vs. marinopyrrole A (1)
Description: (§1) ELISAs were performed using a similar procedure as previously described. Briefly, 40 nM of biotinylated Bim BH3 peptide (Biomatik, Wilmington, DE, USA) in SuperBlock blocking buffer (Thermo Scientific Pierce, Rockford, IL, USA) was incubated in high-binding capacity streptavidin coated plates (Thermo Scientific Pierce, Rockford, IL, USA) for 2 h. Compounds were diluted in 120 µL of PBS containing 10 nM of GST-Mcl-1 or 10 nM GST-Bcl-xL in 1.5-mL tubes for 15 min. Wells were washed with wash buffer (PBS containing 0.05% Tween-20) and then 100 µL of the compound/GST-protein mixture was transferred to the Bim-containing wells. The plates were incubated for 2 h, and then, the wells were washed with wash buffer. HRP-conjugated anti-GST antibody (Bethyl Laboratories, Montgomery, TX, USA) was diluted 1:2000 in SuperBlock, and 100 µL were transferred to each well. The plate was incubated for 1 h, and then, the wells were washed with wash buffer followed by PBS. One hundred microliters of SureBlue TMB Microwell Peroxidase Substrate (VWR International, Radnor, PA, USA) was added to each well, and the plates were developed for 5–10 min. One hundred microliters of 1 N HCl was added to each well to stop the reaction, and the absorbance was read at 450 nm using a µQuant plate reader (Bio-Tek Instruments, Winooski, VT, USA).

[5] = target: T2, Mcl-1/Bim (Homo sapiens, UniProt Q07820); assay: ELISA, disruption of Mcl-1 binding to Bim; settings: for IC50: ELISA; for fold more potent than 1 against Mcl-1/Bim: ELISA IC50 vs. marinopyrrole A (1)
Description: as §1

[6] = aqueous; stated without method or reference; cited from earlier work
[7] = target: T2, Mcl-1/Bim; settings: ELISA; average ± SEM, n ≥ 3; data previously reported; cited from earlier work
[8] = target: T1, Bcl-xL/Bim; design: method as in PMID 24608970; settings: ELISA; average ± SEM, n ≥ 3; data previously reported; cited from earlier work
[9] = target: T3, Mcl-1 (Homo sapiens, UniProt Q07820); assay: Fluorescence-quenching direct binding assay (intrinsic Trp fluorescence); settings: 2.5 μM His-tagged Mcl-1 (residues 172–327), pH 7.6
T3 construct: Recombinant His-tagged Mcl-1 (residues 172–327) was purified as previously described; His; made in house
Description: To confirm direct binding of the compounds to Mcl-1, we have established a fluorescence-quenching assay based on the intrinsic Trp fluorescence of Mcl-1 [37].
Recombinant His-tagged Mcl-1 (residues 172–327) was purified as previously described. Intrinsic Trp fluorescence of Mcl-1 was measured with a TECAN M1000 plate reader at excitation wavelength of 285 nm and emission wavelengths of 310–400 nm. Serial dilutions of compound 9 (starting from 20 μM) in 20 mM K-phosphate pH 7.6, […] was used to assay compound binding using 2.5 μM of Mcl-1. Each condition is run at triplicate and binding constants are calculated by nonlinear regression analysis of dose response curves using Prism software 6.0 (Graphpad, La Jolla, CA, USA). Control experiments included titration of DMSO solvent and fluorescence quenching of denatured Mcl-1 in the presence of compound.

[10] = average ± SEM, n ≥ 3 (n = 2 where given), 10 nM GST-Bcl-xL, 40 nM biotinylated Bim BH3 peptide, read-out: Bcl-xL/Bim IC50
[11] = average ± SEM, n ≥ 3, 10 nM GST-Mcl-1, 40 nM biotinylated Bim BH3 peptide, read-out: Mcl-1/Bim IC50
[12] = read-out: IC50 Bcl-xL/Bim disruption (abstract)
[13] = read-out: IC50 Mcl-1/Bim disruption (abstract)

T2 sequence (Q07820 whole entry): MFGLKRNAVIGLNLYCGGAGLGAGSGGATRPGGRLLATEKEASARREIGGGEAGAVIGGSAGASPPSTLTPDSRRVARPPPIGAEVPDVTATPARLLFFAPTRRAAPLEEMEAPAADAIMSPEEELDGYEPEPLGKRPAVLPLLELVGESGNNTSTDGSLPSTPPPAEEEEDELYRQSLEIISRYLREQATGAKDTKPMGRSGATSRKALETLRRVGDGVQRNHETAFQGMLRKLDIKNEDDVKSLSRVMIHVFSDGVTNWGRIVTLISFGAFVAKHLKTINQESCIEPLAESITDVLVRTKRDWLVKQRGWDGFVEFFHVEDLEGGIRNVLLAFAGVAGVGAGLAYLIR
T1 sequence (Q07817 whole entry): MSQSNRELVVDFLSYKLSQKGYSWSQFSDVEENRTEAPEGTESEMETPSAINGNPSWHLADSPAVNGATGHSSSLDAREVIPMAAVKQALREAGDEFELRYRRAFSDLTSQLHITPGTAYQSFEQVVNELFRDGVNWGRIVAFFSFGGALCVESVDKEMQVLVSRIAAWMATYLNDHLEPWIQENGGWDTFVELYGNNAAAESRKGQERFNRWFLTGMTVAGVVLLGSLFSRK
T3 sequence (Q07820 172-327): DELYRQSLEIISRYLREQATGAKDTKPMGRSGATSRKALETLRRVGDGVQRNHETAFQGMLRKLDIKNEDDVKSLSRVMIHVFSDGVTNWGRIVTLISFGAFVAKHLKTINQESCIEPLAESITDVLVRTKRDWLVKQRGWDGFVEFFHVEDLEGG

Row | SMILES | IC50 ([3]; Homo sapiens, MDA-MB-468, 48 h) | IC50 [4, 10] | IC50 [5, 11] | fold more potent than 1 against Mcl-1/Bim [5] | fold more potent than 1 against Bcl-xL/Bim [4] | IC50 [4, 12] | IC50 [5, 13] | Kd [9] | selectivity for Mcl-1/Bim over Bcl-xL/Bim ([5]; ratio of ELISA IC50 values) | induction of apoptosis (cleaved caspase 3) [1] | decrease in the levels of Mcl-1 [2] | IC50 ([3]; MTT, 48 h, compounds at 0, 0.5, 5 and 50 μM, estimated) | solubility [6] | IC50 [7] | IC50 [8]
1 | CCOC(=O)c1[nH]c(Cl)c(Cl)c1-n1c(C(=O)c2ccccc2O)cc(Cl)c1Cl [Compound 12] | 16 µM | 17.6 ± 4.5 µM | 11.5 ± 1.9 µM | – | – | – | – | – | – | weak | moderately active | – | – | – | –
2 | COc1ccc(CS(=O)(=O)c2ccc(C(=O)c3[nH]c(Cl)c(Cl)c3-n3c(C(=O)c4ccc(S(=O)(=O)Cc5ccc(OC)cc5)cc4O)cc(Cl)c3Cl)c(O)c2)cc1 [Compound 8] | 50 µM | > 100 µM | 17.4 ± 3.1 µM | – | – | – | – | – | – | weak | moderately active | – | – | – | –
3 | CCOC(=O)CSc1ccc(C(=O)c2[nH]c(Cl)c(Cl)c2-n2c(C(=O)c3ccc(SCC(=O)OCC)cc3O)cc(Cl)c2Cl)c(O)c1 [Compound 3] | 3 µM | 1.2 ± 0.2 µM | 1.8 ± 0.3 µM | five | – | – | – | – | – | potently induced apoptosis | highly potent | – | – | – | –
4 | O=C(c1ccc(SCc2ccccc2)cc1O)c1[nH]c(Cl)c(Cl)c1-n1c(C(=O)c2ccc(SCc3ccccc3)cc2O)cc(Cl)c1Cl [Compound 4, (4,4′,5,5′-Tetrachloro-1′H-1,3′-bipyrrole-2,2′-diyl)bis(((2-hydroxy-4-benzylthio)phenyl)methanone)] | 28 µM | 0.6 ± 0.2 µM | 0.7 ± 0.2 µM | 12.7 fold | 27.3 fold | 0.7 µM | 0.6 µM | – | – | potently induced apoptosis | highly potent | – | – | – | –
5 | O=C(c1ccc(S(=O)(=O)Cc2ccccc2)cc1O)c1[nH]c(Cl)c(Cl)c1-n1c(C(=O)c2ccc(S(=O)(=O)Cc3ccccc3)cc2O)cc(Cl)c1Cl [Compound 7, (4,4′,5,5′-Tetrachloro-1′H-1,3′-bipyrrole-2,2′-diyl)bis(((2-hydroxy-4-benzylsulfonyl)phenyl)methanone)] | 20 µM | 69.3 ± 15.8 µM | 7.3 ± 1.4 µM | – | – | – | – | – | – | potently induced apoptosis | – | – | – | – | –
6 | O=C(c1ccccc1O)c1[nH]c(Cl)c(Cl)c1-n1c(C(=O)c2ccccc2O)cc(Cl)c1Cl [Compound 1, marinopyrrole A, reference compound] | – | 96.6 µM | 25.1 ± 4.7 µM | – | – | – | – | – | – | potently induced apoptosis | significant decrease | 2 µM | poor solubility | 8.9 ± 1 µM | 16.4 ± 3.3 µM
7 | O=C(O)CSc1ccc(C(=O)c2[nH]c(Cl)c(Cl)c2-n2c(C(=O)c3ccc(SCC(=O)O)cc3O)cc(Cl)c2Cl)c(O)c1 [Compound 9] | 29 µM | > 100 µM | 6.1 ± 1.3 µM | – | – | – | – | 2.7 µM | 16.4 fold | weak | moderately active | – | – | – | –

Second part, led by results:

Row | IC50 ([3]; Homo sapiens, MDA-MB-468, 48 h) | IC50 [4, 10] | IC50 [5, 11] | fold more potent than 1 against Mcl-1/Bim [5] | fold more potent than 1 against Bcl-xL/Bim [4] | IC50 [4, 12] | IC50 [5, 13] | Kd [9] | selectivity for Mcl-1/Bim over Bcl-xL/Bim ([5]; ratio of ELISA IC50 values) | SMILES | induction of apoptosis (cleaved caspase 3) [1] | decrease in the levels of Mcl-1 [2] | IC50 ([3]; MTT, 48 h, compounds at 0, 0.5, 5 and 50 μM, estimated) | solubility [6] | IC50 [7] | IC50 [8]
8 | 2 µM | – | – | – | – | – | – | – | – | CCOC(=O)c1cc(Cl)c(Cl)n1-c1c(C(=O)c2ccccc2O)[nH]c(Cl)c1Cl [Compound 11] | potently induced apoptosis | highly potent | – | – | – | –
9 | 20 µM | > 100 µM | 63 ± 5.4 µM | – | – | – | – | – | – | O=C(O)CS(=O)(=O)c1ccc(C(=O)c2[nH]c(Cl)c(Cl)c2-n2c(C(=O)c3ccc(S(=O)(=O)CC(=O)O)cc3O)cc(Cl)c2Cl)c(O)c1 [Compound 10] | potently induced apoptosis | highly potent | – | – | – | –
10 | 50 µM | 0.6 ± 0.1 µM | 0.7 ± 0.1 µM | 12.7 fold | 27.3 fold | 0.7 µM | 0.6 µM | – | – | COc1ccc(CSc2ccc(C(=O)c3[nH]c(Cl)c(Cl)c3-n3c(C(=O)c4ccc(SCc5ccc(OC)cc5)cc4O)cc(Cl)c3Cl)c(O)c2)cc1 [Compound 5] | potently induced apoptosis | highly potent | – | – | – | –
11 | 50 µM | > 100 µM | 37.3 ± 3.1 µM | – | – | – | – | – | – | CCOC(=O)CS(=O)(=O)c1ccc(C(=O)c2[nH]c(Cl)c(Cl)c2-n2c(C(=O)c3ccc(S(=O)(=O)CC(=O)OCC)cc3O)cc(Cl)c2Cl)c(O)c1 [Compound 6] | potently induced apoptosis | highly potent | – | – | – | –
